Where two headings read alike, the source gives them in different places.
Legend:
[1] = target: T1, FIP1L1-PDGFRα wild type (Homo sapiens, UniProt P16234); test: Bone marrow transplant model of FIP1L1-PDGFRα-induced myeloproliferative disease; assay type: in vivo, Balb/c mice; conditions: at time of death or trial endpoint
T1 construct: FIP1L1 (N-terminal part of FIP1-like 1, Q6UN15); expressed in transfected cells; host or cells: Bone marrow cells retrovirally transduced with MSCV-FIP1L1-PDGFRα-ires-EGFP and transplanted into Balb/c mice; the other entry of the earlier key: FIP1L1 (Q6UN15, Pre-mRNA 3'-end-processing factor FIP1)
Experimental: (§1) The retroviral construct MSCV-FIP1L1-PDGFRα-ires-EGFP and the corresponding T674I mutant were described previously (Cools et al., New England Journal of Medicine Vol. 348 No. 13, p 1201-1214 2003). The N659D mutation was introduced by PCR (polymerase chain reaction).
(§2) Balb/c mice were purchased from Taconic (Germantown, N.Y.). Bone marrow transplant assays (injecting 1×10^6 cells per recipient mouse) and drug treatment of the mice was performed as described previously (Schwaller et al., 1998; Kelly et al.; Weisberg et al., 2002). Imatinib (stored as powder at 4° C.) was resuspended in a 0.5% methylcellulose (MC) solution in water prior to use. PKC412 (6% w/w in Gelucire® 44/14 (GC) (Gattefosse,France)) was stored at 4° C. as a waxy-solid formulation. Prior to administration, the GC/PKC412 waxy solid mixture was melted in a 44° C. water bath and diluted with sterilized deionized water. The animals were weighed at regular basis to ensure that a consistent dose (150 mg/kg/day for imatinib and 100 mg/kg/day for PKC412) of drug was administered. Dosing was performed every 12 hr for imatinib and every 24 hr for PKC412 by oral gavage of a maximum volume of 150 μl per animal using 22 gauge gavage needles (Hornbecks). Placebo animals received the same volume of a MC or GC solution. Any animals with splenomegaly (spleen boundary detectable at the dorsal medline) or that were moribund were sacrificed and analysed for signs of hematological disease. Peripheral blood was collected from the retroorbital cavity using a heparinized glass capillary. Blood smears were stained with Wright and Giemsa. Manual and automated (ADIVA 120 Hematology system, Bayer) total and differential blood cell counts were performed. Histopathologic exam of relevant organs (spleen, liver, heart, lungs, Intestine, hindlimb bones, and kidneys) and preparation of single-cell suspensions from spleen and bone marrow for flow cytometry was performed as described. In comparing the survival time of the mice, all times are measured from the day of BMT (bone marrow transplant), and the log rank test is used to attach a significance level to the difference in the survival curve.

[2] = tested on: FIP1L1-PDGFRαT674I; assay type: in vivo, Balb/c mice; conditions: at time of death or trial endpoint
Experimental: as §1, §2

[3] = trial 1, FIP1L1-PDGFRα wild type, imatinib 150 mg/kg/day oral gavage
[4] = trial 2, FIP1L1-PDGFRα, imatinib 150 mg/kg/day, PKC412 100 mg/kg/day, oral gavage
[5] = trial 1, FIP1L1-PDGFRαT674I, imatinib 150 mg/kg/day oral gavage
[6] = trial 2, FIP1L1-PDGFRα T674I, imatinib 150 mg/kg/day, PKC412 100 mg/kg/day, oral gavage

T1 sequence (P16234 593-1089 limits assumed): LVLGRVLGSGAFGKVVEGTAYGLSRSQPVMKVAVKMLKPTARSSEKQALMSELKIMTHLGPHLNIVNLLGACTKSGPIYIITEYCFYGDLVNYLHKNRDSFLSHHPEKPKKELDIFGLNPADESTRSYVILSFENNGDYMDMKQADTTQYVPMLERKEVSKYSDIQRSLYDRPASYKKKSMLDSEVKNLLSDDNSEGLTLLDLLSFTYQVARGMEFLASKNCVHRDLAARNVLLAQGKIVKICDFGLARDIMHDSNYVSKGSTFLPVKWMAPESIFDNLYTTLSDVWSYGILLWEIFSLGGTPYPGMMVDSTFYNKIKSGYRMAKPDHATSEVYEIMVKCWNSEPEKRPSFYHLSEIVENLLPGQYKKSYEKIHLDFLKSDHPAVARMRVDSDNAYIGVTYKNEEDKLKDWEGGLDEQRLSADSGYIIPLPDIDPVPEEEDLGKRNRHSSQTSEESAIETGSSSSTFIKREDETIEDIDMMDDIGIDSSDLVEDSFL

Cc1ccc(NC(=O)c2ccc(CN3CCN(C)CC3)cc2)cc1Nc1nccc(-c2cccnc2)n1 [imatinib]
WBC, mean [1, 3]: 6e+06 mL⁻¹ | WBC, median [1, 3]: 5.2e+06 mL⁻¹ | WBC, range [1, 3]: 4.6-9.4 ×10^6/ml | WBC, mean [1, 4]: 4.8e+06 mL⁻¹ | WBC, median [1, 4]: 4.8e+06 mL⁻¹ | WBC, range [1, 4]: 4.4-5.3 ×10^6/ml | WBC, mean [2, 5]: 4.965e+08 mL⁻¹ | WBC, median [2, 5]: 5.077e+08 mL⁻¹ | WBC, range [2, 5]: 434.6-535.8 ×10^6/ml | WBC, mean [2, 6]: 5.482e+08 mL⁻¹ | WBC, median [2, 6]: 5.915e+08 mL⁻¹ | WBC, range [2, 6]: 364.9-657.6 ×10^6/ml

Source: US20060229290A1, “Staurosporine derivatives for hypereosinophilic syndrome” (priority 2003, published 2006)
